{
  "source": "patent US7112698B2",
  "about": "“4-(c2-6alkoxy)-substituted chalcones as therapeutic agents” (Spear Therapeutics Limited, priority 2001, dated 2006)",
  "key": {"[1]": {"test_system": "MCF-10A normal breast cell line", "experiment": "MCF-10A normal cell line cytotoxicity assay", "format": "cell-based", "conditions": "Homo sapiens, without TCDD", "experimental": "(§1) Cells were maintained in RPMI 1640 with Glutamax 1 (Life Technologies) with 10% (v/v) heat inactivated foetal calf serum (Hybrimax. Sigma), at 37° C., 5% CO2/95% air with 100% humidity and passaged using trypsin/EDTA. 1×10^3 cells were plated out in 100 μl medium per well of 96-well flat-bottomed plates (Fisher). […] The medium was then carefully aspirated and 100 μl fresh medium added. […] 50 μl MTT (Thiazol blue, Sigma) at 2 mg/ml in Dulbecco's phosphate buffered saline-A, was then added to each well for 3 hours. All medium was aspirated, then the formazan product generated by viable cells was solubilized with 150 μl DMSO. Plates were vortexed and the absorbance at 540 nm determined using a plate reader. […] All determinations were carried out in at least triplicate.\n(§2) This cell culture based assay is performed using the two cell lines MDA-468 and MCF-10A. The MDA468 cell line is an advanced breast cancer cell line, whilst the MCF-10A cell line is a normal breast cell line.\n(§3) This assay was performed using the two cell lines MDA-468 and MCF-10A according to the procedure described above for the MCF-7 assay, but without the addition of TCDD.\n(§4) The tumour selectivity differential factor (TSDF) is calculated by dividing the IC50 obtained from the MCF-10A data by the IC50 obtained from the MDA-468 data."}, "MCF-7 cells": {"test_system": "MCF-7 cells", "experiment": "MCF-7 cell line (non-induced) cytotoxicity assay, MTT", "format": "cell-based", "conditions": "Homo sapiens, MCF7; non-induced MCF-7 cells, 96 hours, MTT; read-out: MCF-7 Cells IC50", "source_text": "(§5) CYP1A1 and CYP1B1 enzyme activity is induced by TCDD (tetrachlorodibenzodioxin (Dioxin)) in breast tumour MCF-7 cells (see, e.g., Sutter et al., 1994). CYP1B1 is expressed in a variety of human tumours, and can be inducible by TCDD in numerous cell types including breast, liver, lung, and kidney (see, e.g., Murray et al., 1997). CYP1B1 is known to catalyse estradiol 4-hydroxylation metabolism. In untreated culture, the constitutive rate of estradiol E2 metabolism in MCF-7 cells is minimal. However, treatment with TCDD causes a marked increase in the rate of E2 metabolism (see, e.g., Spink et al., 1994). […] Therefore the cytotoxicity of compounds in non-induced MCF-7 cells correlates to the cytotoxicity of compounds against normal cells, whilst the cytotoxicity of compounds against TCDD-induced MCF-7 cells correlates to the cytotoxicity of compounds against real tumours that express CYP1B1.\n(§6) The cytotoxicity of compounds in non-induced MCF-7 cells correlates to the cytotoxicity of compounds against normal cells, whilst the cytotoxicity of compounds against TCDD-induced MCF-7 cells correlates to the cytotoxicity of compounds against real tumours that express CYP1B1.\n(§7) Cells were maintained in RPMI 1640 with Glutamax 1 (Life Technologies) with 10% (v/v) heat inactivated foetal calf serum (Hybrimax. Sigma), at 37° C., 5% CO2/95% air with 100% humidity and passaged using trypsin/EDTA. 1×10^3 cells were plated out in 100 μl medium per well of 96-well flat-bottomed plates (Fisher). After 4 hours to allow adherance, 100 μl of medium containing TCDD (British Greyhound Chromatography; 10 μM stock in DMSO (dimethylsulfoxide)) or medium with 0.2% (v/v) DMSO as control was added to each well to give a final concentration of 10 nM TCDD, 0.1% (v/v) DMSO, for 24 hours to allow maximal CYP expression. The medium was then carefully aspirated and 100 μl fresh medium added. Within 30 minutes test compound was added in quadruplicate in 100 μl medium (with or without inhibitors) at double the final concentration from 100 mM stock in DMSO to give a final concentration of not more than 0.1% (v/v) DMSO, or DMSO solvent alone at 0.1% (v/v) as control. The cells were then allowed to grow on for 96 hours to give 80–90% confluence in the control wells. 50 μl MTT (Thiazol blue, Sigma) at 2 mg/ml in Dulbecco's phosphate buffered saline-A, was then added to each well for 3 hours. All medium was aspirated, then the formazan product generated by viable cells was solubilized with 150 μl DMSO. Plates were vortexed and the absorbance at 540 nm determined using a plate reader. Results were expressed as the percentage of 100% (control) proliferation and the IC50 calculated using the line of best fit for a sigmoidal dose response curve with variable slope using Graphpad Prizm software. All determinations were carried out in at least triplicate."}, "[2]": {"test_system": "MDA-468 advanced breast cancer cell line", "experiment": "MDA-468 tumour cell line cytotoxicity assay", "format": "cell-based, human", "experimental": "as §1, §2, §3, §4"}, "TCDD-induced MCF-7 cells": {"test_system": "TCDD-induced MCF-7 cells", "experiment": "TCDD-induced MCF-7 cell line cytotoxicity assay, MTT", "format": "cell-based, human", "conditions": "for IC50: 96 hours, MTT", "source_text": "as §5, §6\nas §7, with “triplicate. […]” for “triplicate.”"}, "[3]": {"test_system": "K562 human leukemia cell line", "conditions": "background, antitumour activity; cited from earlier work"}},
  "data": [
    {"smiles": "CCCOc1ccc(/C=C/C(=O)c2cc(OC)cc(OC)c2)cc1", "note": "[DMU-175, (E)-1-(4-propoxyphenyl)-3-(3,5-dimethoxyphenyl)prop-1-en-3-one]", "values": [
      {"measurement": "IC50", "setting": "[1]", "value": 16, "unit": "µM"},
      {"measurement": "IC50", "setting": "MCF-7 cells", "value": 15, "unit": "µM"},
      {"measurement": "IC50", "setting": "[2]; Homo sapiens, without TCDD", "value": 1.4, "unit": "µM"},
      {"measurement": "Tumour Selectivity Differential Factor", "setting": "[2]; IC50 MCF-10A divided by IC50 MDA-468 (Table 2)", "value": 11},
      {"measurement": "more toxic to cancer cells than to normal cells (tumour selectivity)", "setting": "[2]; MDA-468 versus MCF-10A", "value": 11, "unit": "fold"},
      {"measurement": "increase in the cytotoxic activity by the induction of CYP1B1", "setting": "TCDD-induced MCF-7 cells; FIG. 1, un-induced versus TCDD-induced MCF-7 cells", "value": 28, "unit": "fold"},
      {"measurement": "IC50", "setting": "TCDD-induced MCF-7 cells; Homo sapiens, MCF7, MCF-7 cells induced with 10 nM TCDD for 24 hours", "value": 0.54, "unit": "µM"},
      {"measurement": "Tumour Selectivity Differential Factor", "setting": "TCDD-induced MCF-7 cells; MCF-7 IC50 versus TCDD-induced MCF-7 IC50 (Table 1)", "value": 30},
      {"measurement": "IC50", "setting": "TCDD-induced MCF-7 cells; MCF-7 cells induced with 10 nM TCDD for 24 hours", "value": 0.5, "unit": "µM"},
      {"measurement": "more toxic to “tumour” cells than to “normal” cells", "setting": "TCDD-induced MCF-7 cells; TCDD-induced MCF-7 versus MCF-7", "value": 30, "unit": "fold"}
    ]},
    {"smiles": "CC(=O)/C=C/c1ccc(O)cc1", "note": "[(E)-1-(4′-hydroxyphenyl)but-1-en-3-one]", "values": [
      {"measurement": "IC50", "setting": "[3]", "value": 60, "unit": "µM"}
    ]}
  ]
}
